Assay results: ChEMBL document CHEMBL5226375, “Synthesis and Comprehensive in Vivo Activity Profiling of Olean-12-en-28-ol, 3β-Pentacosanoate in Experimental Autoimmune Encephalomyelitis: A Natural Remyelinating and Anti-Inflammatory Agent” (J Nat Prod, 2023)
The source made the active and inactive calls. No cut-off for these calls is given here.

Experiments:
Mus musculus [1] = assay: Anti-inflammatory activity against MOG35-55-induced experimental autoimmune encephalomyelitis C57BL/6 mouse model assessed as fold change in CCL5 gene expression in brain at 600 mg/kg/day, ig for 14 days starting from 12th day of immunization by RT-qPCR analysis relative to control; format: functional; settings: time 14 day
Mus musculus [2] = assay: Anti-inflammatory activity against MOG35-55-induced experimental autoimmune encephalomyelitis C57BL/6 mouse model assessed as fold change in IL6 gene expression in brain at 600 mg/kg/day, ig for 14 days starting from 12th day of immunization by RT-qPCR analysis relative to control; format: functional; settings: time 14 day
Mus musculus [3] = assay: Anti-inflammatory activity against MOG35-55-induced experimental autoimmune encephalomyelitis C57BL/6 mouse model assessed as methylation of CpG sites of […] gene promoter in brain at 600 mg/kg, ig for 14 days starting from 12th day of immunization by PCR analysis (reference value: 45 +/-7%); format: functional; settings: time 14 day
[4] = Toxicity in C57BL/6 mouse assessed as serum LDH activity at 600 mg/kg/day, ig for 14 days by colorimetric analysis (reference value: 5.96 +/-1.08 U/ml); format: organism-based; settings: in vivo, po, 336 h, time 14 day
Mus musculus [5] = assay: Anti-inflammatory activity against MOG35-55-induced experimental autoimmune encephalomyelitis C57BL/6 mouse model assessed as fold change in CCL5 gene expression in brain at 300 mg/kg/day, ig for 14 days starting from 12th day of immunization by RT-qPCR analysis relative to control; format: functional; settings: time 14 day
Mus musculus [6] = assay: Anti-inflammatory activity against MOG35-55-induced experimental autoimmune encephalomyelitis C57BL/6 mouse model assessed as reduction in serum […] cytokine level by measuring reduction in IL-17 level at 600 mg/kg/day, ig for 14 days starting from 12th day of immunization by ELISA; format: functional, organism-based; settings: time 14.0 day
Mus musculus [7] = assay: Anti-inflammatory activity against MOG35-55-induced experimental autoimmune encephalomyelitis C57BL/6 mouse model assessed as upregulation of MBP protein expression in brain at 300 to 600 mg/kg/day, ig for 14 days starting from 12th day of immunization by western blot analysis relative to control; format: functional; settings: dose 300-600 mg/kg/day, time 14 day
Mus musculus [8] = assay: Anti-inflammatory activity against MOG35-55-induced experimental autoimmune encephalomyelitis C57BL/6 mouse model assessed as fold change in MAG gene expression in brain at 300 mg/kg/day, ig for 14 days starting from 12th day of immunization by RT-qPCR analysis relative to control; format: functional; settings: time 14 day
Mus musculus [9] = assay: Anti-inflammatory activity against MOG35-55-induced experimental autoimmune encephalomyelitis C57BL/6 mouse model assessed as reduction in EAE symptoms by measuring reduction in clinical score at 300 to 600 mg/kg/day, ig starting from 12th day of immunization and measured on day 14 post-immunization; format: functional, organism-based; settings: dose 300-600 mg/kg/day, time 2.0 day
Mus musculus [10] = assay: Anti-inflammatory activity against MOG35-55-induced experimental autoimmune encephalomyelitis C57BL/6 mouse model assessed as fold change in PLP gene expression in brain at 300 mg/kg/day, ig for 14 days starting from 12th day of immunization by RT-qPCR analysis relative to control; format: functional; settings: time 14 day
Mus musculus [11] = assay: Anti-inflammatory activity against MOG35-55-induced experimental autoimmune encephalomyelitis C57BL/6 mouse model assessed as fold change in TGFB1 gene expression in brain at 600 mg/kg/day, ig for 14 days starting from 12th day of immunization by RT-qPCR analysis relative to control; format: functional; settings: time 14 day
Mus musculus [12] = assay: Anti-inflammatory activity against MOG35-55-induced experimental autoimmune encephalomyelitis C57BL/6 mouse model assessed as fold change in NFKB gene expression in brain at 0.3 mg/kg/day, ig for 14 days starting from 12th day of immunization by RT-qPCR analysis relative to control; format: functional; settings: time 14 day
Mus musculus [13] = assay: Anti-inflammatory activity against MOG35-55-induced experimental autoimmune encephalomyelitis C57BL/6 mouse model assessed as reduction in serum Th1 cytokine level by measuring reduction in IFNG level at 0.3 mg/kg/day, ig for 14 days starting from 12th day of immunization by ELISA; format: functional, organism-based; settings: time 14.0 day
Mus musculus [14] = assay: Anti-inflammatory activity against MOG35-55-induced experimental autoimmune encephalomyelitis C57BL/6 mouse model assessed as methylation of CpG sites of […] gene promoter in brain at […], ig for 14 days starting from 12th day of immunization by PCR analysis (reference value: 13.1 +/-8%); format: functional; settings: time 14 day
Mus musculus [15] = assay: Anti-inflammatory activity against MOG35-55-induced experimental autoimmune encephalomyelitis C57BL/6 mouse model assessed as methylation of CpG sites of IL11 gene promoter in brain at […], ig for 14 days starting from 12th day of immunization by PCR analysis (reference value: 61.1 +/-4%); format: functional; settings: time 14 day
Mus musculus [16] = assay: Anti-inflammatory activity against MOG35-55-induced experimental autoimmune encephalomyelitis C57BL/6 mouse model assessed as methylation of CpG sites of TGFB1 gene promoter in brain at […], ig for 14 days starting from 12th day of immunization by PCR analysis (reference value: 18.3 +/-4%); format: functional; settings: time 14 day
Mus musculus [17] = assay: Anti-inflammatory activity against MOG35-55-induced experimental autoimmune encephalomyelitis C57BL/6 mouse model assessed as fold change in HIF1A gene expression in brain at 0.15 mg/kg/day, ig for 14 days starting from 12th day of immunization by RT-qPCR analysis relative to control; format: functional; settings: time 14 day
Mus musculus [18] = assay: Anti-inflammatory activity against MOG35-55-induced experimental autoimmune encephalomyelitis C57BL/6 mouse model assessed as reduction in serum chemokines level by measuring reduction in CCL5 level at 0.3 mg/kg/day, ig for 14 days starting from 12th day of immunization by ELISA; format: functional, organism-based; settings: time 14.0 day
Mus musculus [19] = assay: Anti-inflammatory activity against MOG35-55-induced experimental autoimmune encephalomyelitis C57BL/6 mouse model assessed as fold change in CD4 gene expression in brain at 0.3 mg/kg/day, ig for 14 days starting from 12th day of immunization by RT-qPCR analysis relative to control; format: functional; settings: time 14 day
Mus musculus [20] = assay: Anti-inflammatory activity against MOG35-55-induced experimental autoimmune encephalomyelitis C57BL/6 mouse model assessed as reduction in serum monokines level by measuring reduction in IL-6 level at 0.3 mg/kg/day, ig for 14 days starting from 12th day of immunization by ELISA; format: functional, organism-based; settings: time 14.0 day
Mus musculus [21] = assay: Anti-inflammatory activity against MOG35-55-induced experimental autoimmune encephalomyelitis C57BL/6 mouse model assessed as fold change in NFKB gene expression in brain at 0.15 mg/kg/day, ig for 14 days starting from 12th day of immunization by RT-qPCR analysis relative to control; format: functional; settings: time 14 day
Mus musculus [22] = assay: Anti-inflammatory activity against MOG35-55-induced experimental autoimmune encephalomyelitis C57BL/6 mouse model assessed as fold change in STAT3 gene expression in brain at 0.15 mg/kg/day, ig for 14 days starting from 12th day of immunization by RT-qPCR analysis relative to control; format: functional; settings: time 14 day

Q: Which “fold change (FC)” value (Mus musculus [1]) does the source give for `CCCCCCCCCCCCCCCCCCCCCCCCC(=O)O[C@H]1CC[C@]2(C)[C@H]3CC=C4[C@@H]5CC(C)(C)CC[C@]5(CO)CC[C@@]4(C)[C@]3(C)CC[C@H]2C1(C)C` here?
A: The value was 1.27.

Q: What about the “fold change (FC)” value (Mus musculus [2]) of the same molecule?
A: The value was -2.32.

Q: What about the Activity (Mus musculus [3]) of the same molecule?
A: The Activity was 44.7%.

Q: What about the Activity [4] of the same molecule?
A: The Activity was 5.37 U/ml.

Q: And the “fold change (FC)” value (Mus musculus [5])?
A: Its value is 2.69.

Q: And the Activity (Mus musculus [6])?
A: Its Activity is “Active”.

Q: And the “fold change (FC)” value (Mus musculus [7])?
A: Its value is 2.

Q: And the “fold change (FC)” value (Mus musculus [8])?
A: The value was 1.54.

Q: What about the Activity (Mus musculus [9]) of the same molecule?
A: The Activity was “Active”.

Q: And the “fold change (FC)” value (Mus musculus [10])?
A: The value was 1.9.

Q: What about the “fold change (FC)” value (Mus musculus [11]) of the same molecule?
A: Its value is 8.29.

Q: Which results are given for `CCCCCCCCc1ccc(CCC(N)(CO)CO)cc1` [FINGOLIMOD]?
A: fold change (FC) (Mus musculus [12]): 1.98; Activity (Mus musculus [13]): Active; Activity (Mus musculus [14]): 19%; Activity (Mus musculus [15]): 36.2%; Activity (Mus musculus [16]): 35.1%; fold change (FC) (Mus musculus [17]): 2.49; Activity (Mus musculus [18]): Active; fold change (FC) (Mus musculus [19]): 2.12; Activity (Mus musculus [20]): Active; fold change (FC) (Mus musculus [21]): 2.04; fold change (FC) (Mus musculus [22]): 1.96
